pKd: −log10 of the molar value.
Key:
ASFV dUTPase [1] = biological target: T1, ASFV dUTPase (African swine fever virus, UniProt Q65199); assay: biochemical; type: binding
ASFV dUTPase [2] = biological target: T1, ASFV dUTPase; type: biochemical
swine dUTPase = type: biochemical

T1 sequence (Q65199 whole entry, looked up): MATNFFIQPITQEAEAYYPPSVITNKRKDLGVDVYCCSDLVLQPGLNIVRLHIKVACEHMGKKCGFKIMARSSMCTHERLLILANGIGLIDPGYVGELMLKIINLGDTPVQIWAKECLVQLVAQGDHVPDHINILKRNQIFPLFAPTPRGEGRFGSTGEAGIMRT

Compound: O=c1ccn(CCCCOC(c2ccccc2)(c2ccccc2)c2ccccc2)c(=O)[nH]1 [compound 2]
- Kd (ASFV dUTPase [1]): cannot be calculated
- inhibition of enzyme activity of ASFV dUTPase (ASFV dUTPase [2]): dose-dependent manner

Compound: O=c1ccn(CCCCNC(c2ccccc2)(c2ccccc2)c2ccccc2)c(=O)[nH]1 [compound 1]
- pKd (ASFV dUTPase [1]): 4.81
- mode of inhibition (ASFV dUTPase [1]): competitive inhibitor
- inhibition of enzyme activity of ASFV dUTPase (ASFV dUTPase [2]): dose-dependent manner
- selectivity of inhibitory activity for ASFV dUTPase over swine dUTPase (swine dUTPase): selective for ASFV dUTPase over swine dUTPase
